Results reported in patent publication US10899738B2 (THE REGENTS OF THE UNIVERSITY OF MICHIGAN, priority 2016, dated 2021).
Like-named read-outs stand apart in the source and are kept apart here.

Experiments:
menin protein = menin protein (Homo sapiens (Human), UniProt O00255); assay: biochemical; type: binding; conditions: FP competitive binding; menin protein 4 nM, FAM-MM2 probe 2 nM; read-out: Menin Binding Affinity IC50
In short: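 Test compounds displaced FAM-MM2 (2 nM) from 4 nM menin after 30 min equilibration at room temperature in PBS buffer containing bovine γ-globulin, 4% DMSO and Triton X-100. Binding was followed by fluorescence polarization. Competition curves were fitted by nonlinear regression to give IC50 and Ki.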

[1] = Cell growth inhibition, CellTiter-Glo Luminescent Cell Viability Assay; type: cell-based
Procedure: Cell growth inhibitory activity of representative menin inhibitors was determined using CellTiter-Glo® Luminescent Cell Viability Assay. Cells were seeded in 384-well white opaque cell culture plates at a density of 2,000 cells/well with serially diluted compounds and incubated at 37° C. in an atmosphere of 95% air and 5% CO2 for 4 days. Cell viability was determined using the CellTiter-Glo® Luminescent Cell Viability Assay Kit (Promega, Madison, Wis.) according to the manufacture's instruction. Briefly, a volume of CellTiter-Glo® Reagent equal to the volume of cell culture medium was added to each well, and then the plates were incubated at room temperature for 10-20 minutes. The luminescent signal was measured using a Tecan Infinite M1000 multimode microplate reader (Tecan, Morrisville, N.C.). The half maximal inhibitory concentration (IC50) was calculated using the GraphPad Prism 5 software (GraphPad Software, La Jolla, Calif.).

[2] = MOLM-13, 96 h, read-out: Cell Growth Inhibition IC50 (μM) MOLM13, MOLM13 cells, 4 days, CellTiter-Glo
[3] = MV4-11, 96 h, read-out: Cell Growth Inhibition IC50 (μM) MV4, 11, MV4, 11 cells, 4 days, CellTiter-Glo

Chain of menin protein (O00255 whole entry): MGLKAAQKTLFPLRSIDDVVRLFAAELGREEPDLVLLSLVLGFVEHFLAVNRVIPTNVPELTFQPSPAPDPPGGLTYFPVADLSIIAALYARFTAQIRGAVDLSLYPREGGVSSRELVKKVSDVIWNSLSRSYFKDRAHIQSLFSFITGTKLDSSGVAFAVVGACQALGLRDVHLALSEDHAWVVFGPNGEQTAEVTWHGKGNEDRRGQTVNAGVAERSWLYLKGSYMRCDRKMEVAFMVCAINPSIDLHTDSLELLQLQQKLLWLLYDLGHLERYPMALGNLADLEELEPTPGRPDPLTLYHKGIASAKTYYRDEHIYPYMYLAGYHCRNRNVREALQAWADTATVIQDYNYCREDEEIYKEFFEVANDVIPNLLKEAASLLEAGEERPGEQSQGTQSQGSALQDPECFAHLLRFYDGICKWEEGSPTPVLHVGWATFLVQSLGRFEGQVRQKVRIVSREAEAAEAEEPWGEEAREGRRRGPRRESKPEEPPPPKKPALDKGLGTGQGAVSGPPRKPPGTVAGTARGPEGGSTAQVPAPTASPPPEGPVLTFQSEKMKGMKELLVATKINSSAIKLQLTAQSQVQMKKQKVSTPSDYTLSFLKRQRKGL

Structure (SMILES) | IC50 (menin protein) [nM] | other results
CNC(=O)O[C@H]1CCC[C@@H]1[C@](C#N)(c1ccccc1)C1CCN(CC2CN(c3ccc(S(=O)(=O)c4ccncc4)cc3)C2)CC1 (mixture of isomers) [compound 353, rac-(1S,2R)-2-((S)-cyano(phenyl)(1-((1-(4-(pyridin-4-ylsulfonyl)phenyl)azetidin-3-yl)methyl)piperidin-4-yl)methyl)cyclopentyl methylcarbamate] | 6 | IC50 [1, 2]: 0.25 µM; IC50 [1, 3]: 0.075 µM
CNC(=O)O[C@@H]1CCC[C@H]1[C@@](C#N)(c1ccccc1)C1CCN(CC2CN(c3ccc(S(=O)(=O)c4ccncc4)cc3)C2)CC1 (mixture of isomers) [compound 354, rac-(1R,2S)-2-((R)-cyano(phenyl)(1-((1-(4-(pyridin-4-ylsulfonyl)phenyl)azetidin-3-yl)methyl)piperidin-4-yl)methyl)cyclopentyl methylcarbamate] | 62 | IC50 [1, 2]: 4.7 µM; IC50 [1, 3]: 1.3 µM
CCN1Cc2ccccc2C(C2CCN(CC3CN(c4ccc(S(=O)(=O)c5cnn(C)c5)cc4)C3)CC2)([C@H]2CCC[C@@H]2NC(=O)NC)C1 (mixture of isomers) [Cpd. No. 291, rac-1-((1S,2R)-2-(2-ethyl-4-(1-((1-(4-((1-methyl-1H-pyrazol-4-yl)sulfonyl)phenyl)azetidin-3-yl)methyl)piperidin-4-yl)-1,2,3,4-tetrahydroisoquinolin-4-yl)cyclopentyl)-3-methylurea] | 7 | IC50 [1, 2]: 0.71 µM; IC50 [1, 3]: 0.2 µM
CCN1Cc2ccccc2C(C2CCN(CC3CN(c4ccc(S(=O)(=O)c5cnn(C)c5)cc4)C3)CC2)([C@H]2CCC[C@@H]2NC(C)=O)C1 (mixture of isomers) [Cpd. No. 292, rac-N-((1S,2R)-2-(2-ethyl-4-(1-((1-(4-((1-methyl-1H-pyrazol-4-yl)sulfonyl)phenyl)azetidin-3-yl)methyl)piperidin-4-yl)-1,2,3,4-tetrahydroisoquinolin-4-yl)cyclopentyl)acetamide] | 11 | IC50 [1, 2]: 1.34 µM; IC50 [1, 3]: 0.13 µM
COC(=O)N[C@H]1CCC[C@@H]1C(C#N)(c1ccccc1)C1CCN(CC2CN(c3ccc(S(=O)(=O)C(F)(F)F)cc3)C2)CC1 (mixture of isomers) [compound 393, methyl rac-((1S,2R)-2-(cyano(phenyl)(1-((1-(4-((trifluoromethyl)sulfonyl)phenyl)azetidin-3-yl)methyl)piperidin-4-yl)methyl)cyclopentyl) carbamate] |  | IC50 [1, 2]: 0.88 µM; IC50 [1, 3]: 0.25 µM
COC(=O)N[C@H]1CCC[C@@H]1C(C#N)(c1ccccc1)C1CCN(CC2CN(c3ccc(C#N)cc3)C2)CC1 (mixture of isomers) [compound 400, methyl rac-((1S,2R)-2-(cyano(1-((1-(4-cyanophenyl)azetidin-3-yl)methyl)piperidin-4-yl)(phenyl)methyl)cyclopentyl) carbamate] |  | IC50 ([1]; MOLM-13, 96 h, MOLM13 cells, 4 days, CellTiter-Glo, read-out: Cell Growth Inhibition IC50 (μM) MOLM13): 6.11 µM; IC50 ([1]; MV4-11, 96 h, MV4, 11 cells, 4 days, CellTiter-Glo, read-out: Cell Growth Inhibition IC50 (μM) MV4, 11): 0.83 µM
COC(=O)N[C@H]1CCC[C@@H]1[C@](C#N)(c1ccccc1)C1CCN(CC2CN(c3ccc(S(=O)(=O)C(F)(F)F)cc3)C2)CC1 [Cpd. No. 403, methyl ((1S,2R)-2-((S)-cyano(phenyl)(1-((1-(4-((trifluoromethyl)sulfonyl)phenyl)azetidin-3-yl)methyl)piperidin-4-yl)methyl)cyclopentyl)carbamate] |  | IC50 [1, 2]: 1.3 µM; IC50 [1, 3]: 0.19 µM
N#Cc1ccc(OCCCN2CCC(C3(C4CCCC4)NCCc4ccccc43)CC2)cc1 (stereo not shown) [compound 27, 4-(3-(4-(1-cyclopentyl-1,2,3,4-tetrahydroisoquinolin-1-yl)piperidin-1-yl)propoxy)benzonitrile] |  | IC50 ([1]; MOLM-13, 96 h, read-out: Cell Growth Inhibition IC50 (μM) MOLM13): 3.6 µM; IC50 ([1]; MV4-11, 96 h, read-out: Cell Growth Inhibition IC50 (μM) MV4, 11): 0.9 µM
CC(C)C(=O)N1CCCCC1C1(C2CCN(CCCOc3ccc(C#N)cc3)CC2)CN(C)Cc2ccccc21 (stereo not shown) [compound 299, 4-(3-(4-(4-(1-isobutyrylpiperidin-2-yl)-2-methyl-1,2,3,4-tetrahydroisoquinolin-4-yl)piperidin-1-yl)propoxy)benzonitrile] | 16800 | 
CC(C)C(=O)N1CCCCC1C1(C2CCN(CCCOc3ccc(C#N)cc3)CC2)CN(C)Cc2ccccc21 (stereo not shown) [compound 300, 4-(3-(4-(4-(1-isobutyrylpiperidin-2-yl)-2-methyl-1,2,3,4-tetrahydroisoquinolin-4-yl)piperidin-1-yl)propoxy)benzonitrile] | 56500 | 
CCC(CC)C(=O)N1CCCCC1C1(C2CCN(CCCOc3ccc(C#N)cc3)CC2)CN(C)Cc2ccccc21 (stereo not shown) [compound 301, 4-(3-(4-(4-(1-(2-ethylbutanoyl)piperidin-2-yl)-2-methyl-1,2,3,4-tetrahydroisoquinolin-4-yl)piperidin-1-yl)propoxy)benzonitrile] | 34800 | 
CCCC(=O)N1CCCCC1C1(C2CCN(CCCOc3ccc(C#N)cc3)CC2)CN(C)Cc2ccccc21 (stereo not shown) [compound 302, 4-(3-(4-(4-(1-butyrylpiperidin-2-yl)-2-methyl-1,2,3,4-tetrahydroisoquinolin-4-yl)piperidin-1-yl)propoxy)benzonitrile] | 6500 | 
CS(=O)(=O)CCC(C#N)(c1ccccc1)C1CCN(CCCOc2ccc(C#N)cc2)CC1 (stereo not shown) [compound 303, 4-(3-(4-(1-cyano-3-(methylsulfonyl)-1-phenylpropyl)piperidin-1-yl)propoxy)benzonitrile] | 75300 | 
N#Cc1ccc(OCCCN2CCC(C3(C4CCCS4(=O)=O)NCCc4ccccc43)CC2)cc1 (stereo not shown) [compound 304, 4-(3-(4-(1-(1,1-dioxidotetrahydrothiophen-2-yl)-1,2,3,4-tetrahydroisoquinolin-1-yl)piperidin-1-yl)propoxy)benzonitrile] | 10700 | 
N#Cc1ccc(OCCCN2CCC(C3NCCc4ccccc43)CC2)cc1 (stereo not shown) [compound 305, 4-(3-(4-(1,2,3,4-tetrahydroisoquinolin-1-yl)piperidin-1-yl)propoxy)benzonitrile] | 42100 | 
N#Cc1ccc(OCCCN2CCC(C(C#N)(CC(=O)N3CCCC3)c3ccccc3)CC2)cc1 (stereo not shown) [compound 306, 4-(3-(4-(1-cyano-3-oxo-1-phenyl-3-(pyrrolidin-1-yl)propyl)piperidin-1-yl)propoxy)benzonitrile] | 40000 | 
CC(=O)N1CCCC(C(C#N)(c2ccccc2)C2CCN(CCCOc3ccc(C#N)cc3)CC2)C1 (stereo not shown) [compound 307, 4-(3-(4-((1-acetylpiperidin-3-yl)(cyano)(phenyl)methyl)piperidin-1-yl)propoxy)benzontrile] | 30600 | 
COCC(C1CC1)C(C#N)(c1ccccc1)C1CCN(CCCOc2ccc(C#N)cc2)CC1 (stereo not shown) [compound 329] | 19000 | 
CC(=O)N1CCC[C@H]1C(C#N)(c1ccccc1)C1CCN(CCCOc2ccc(C#N)cc2)CC1 (stereo partly drawn) [compound 330, 4-(3-(4-(((S)-1-acetylpyrrolidin-2-yl)(cyano)(phenyl)methyl)piperidin-1-yl)propoxy)benzonitrile] | 111000 | 
CC(=O)N1CCC[C@@H]1C(C#N)(c1ccccc1)C1CCN(CCCOc2ccc(C#N)cc2)CC1 (stereo partly drawn) [compound 331, 4-(3-(4-(((R)-1-acetylpyrrolidin-2-yl)(cyano)(phenyl)methyl)piperidin-1-yl)propoxy)benzonitrile] | 23300 | 
CCC1CCCC1C(C#N)(c1ccccc1)C1CCN(CC2CN(c3ccc(S(=O)(=O)c4ccncc4)cc3)C2)CC1 (stereo not shown) [compound 338, 2-(2-ethylcyclopentyl)-2-phenyl-2-(1-((1-(4-(pyridin-4-ylsulfonyl)phenyl)azetidin-3-yl)methyl)piperidin-4-yl)acetonitrile] | 10200 | 
N#CC(Cc1ccncc1)(c1ccccc1)C1CCN(CC2CN(c3ccc(S(=O)(=O)c4ccncc4)cc3)C2)CC1 (stereo not shown) [compound 343, 2-phenyl-3-(pyridin-4-yl)-2-(1-((1-(4-(pyridin-4-ylsulfonyl)phenyl)azetidin-3-yl)methyl)piperidin-4-yl)propanenitrile] | 8800 | 
N#Cc1ccc(OCCCN2CCC(C(C#N)(Cc3ccncc3)c3ccccc3)CC2)cc1 (stereo not shown) [compound 344, 4-(3-(4-(1-cyano-1-phenyl-2-(pyridin-4-yl)ethyl)piperidin-1-yl)propoxy)benzonitrile] | 180000 | 
O=S(=O)(c1ccccc1)c1ccc(N2CC(CN3CCC(C(CN4CCCC4)(C4=CCCC4)c4ccccc4)CC3)C2)cc1 (stereo not shown) [compound 355, 4-(1-(cyclopent-1-en-1-yl)-1-phenyl-2-(pyrrolidin-1-yl)ethyl)-1-((1-(4-(phenylsulfonyl)phenyl)azetidin-3-yl)methyl)piperidine] | 45 | 
Cn1cc(S(=O)(=O)c2ccc(N3CC(CN4CCC(C(CN5CCCC5)(C5=CCCC5)c5ccccc5)CC4)C3)cc2)cn1 (stereo not shown) [compound 357, 4-(1-(cyclopent-1-en-1-yl)-1-phenyl-2-(pyrrolidin-1-yl)ethyl)-1-((1-(4-((1-methyl-1H-pyrazol-4-yl)sulfonyl)phenyl)azetidin-3-yl)methyl)piperidine] | 32 | 
